In patent publication US20250368653A1, “SOLID FORMS COMPRISING (S)-7-(1-ACRYLOYLPIPERIDIN-4-YL)-2-(4-PHENOXYPHENYL)-4,5,6,7-TETRAHYDROPYRAZOLO[1,5-A]PYRIMIDINE-3-CARBOXAMIDE, AND OXALIC ACID, COMPOSITIONS AND METHODS OF USE THEREOF” (BeiGene Switzerland GmbH, priority 2022, published 2025):
≈ marks a conversion by molar mass, not a printed value. Like-named read-outs stand apart in the source and are kept apart here.

What was measured:
DVS water uptake = type: physicochemical; conditions: 25° C./80% RH
[1] = Solubility experiment in water; type: physicochemical; conditions: solid loading 2 mg/mL; for solubility at 1 h / solubility at 2 h / solubility at 4 h / solubility at 24 h: thermodynamic from solid, read-out: S: solubility
Method: Table 7 and Table 8 provide summaries of solubility experiment in water at 37° C. and 25° C., respectively.

Row | SMILES | FC: solid form change ([1]; 25° C., 1 hr) | pH ([1]; 25° C., 1 hr) | FC: solid form change ([1]; 25° C., 2 hrs) | pH ([1]; 25° C., 2 hrs) | FC: solid form change ([1]; 25° C., 4 hrs) | pH ([1]; 25° C., 4 hrs) | FC: solid form change ([1]; 25° C., 24 hrs) | pH ([1]; 25° C., 24 hrs) | FC: solid form change ([1]; 37° C., 1 hr) | pH ([1]; 37° C., 1 hr) | FC: solid form change ([1]; 37° C., 2 hrs) | pH ([1]; 37° C., 2 hrs) | FC: solid form change ([1]; 37° C., 4 hrs) | pH ([1]; 37° C., 4 hrs) | FC: solid form change ([1]; 37° C., 24 hrs) | pH ([1]; 37° C., 24 hrs) | S: solubility ([1]; 25° C., 1 hr) [µg/mL] | S: solubility ([1]; 25° C., 2 hrs) [µg/mL] | S: solubility ([1]; 25° C., 4 hrs) [µg/mL] | S: solubility ([1]; 25° C., 24 hrs) [µg/mL] | also measured
1 | C=CC(=O)N1CCC([C@@H]2CCNc3c(C(N)=O)c(-c4ccc(Oc5ccccc5)cc4)nn32)CC1 [Form 1] | No | 3.36 | No | 3.09 | No | 3.01 | No | 2.76 | Gel | 3.22 | Gel | 2.97 | Gel | 3.01 | Gel | 2.74 |  |  |  |  | hygroscopicity (DVS water uptake): non hygroscopic; water uptake (DVS water uptake): lower than 0.2%; solubility at 1 h ([1]; 25 °C, 25° C., 1 hr): 75 µg/mL (≈ 159 µM); solubility at 2 h ([1]; 25 °C, 25° C., 2 hrs): 78 µg/mL (≈ 165 µM); solubility at 4 h ([1]; 25 °C, 25° C., 4 hrs): 77 µg/mL (≈ 163 µM); solubility at 24 h ([1]; 25 °C, 25° C., 24 hrs): 75 µg/mL (≈ 159 µM); solubility at 1 h ([1]; 37 °C, 37° C., 1 hr): 90 µg/mL (≈ 191 µM); solubility at 2 h ([1]; 37 °C, 37° C., 2 hrs): 88 µg/mL (≈ 187 µM); solubility at 4 h ([1]; 37 °C, 37° C., 4 hrs): 73 µg/mL (≈ 155 µM); solubility at 24 h ([1]; 37 °C, 37° C., 24 hrs): 82 µg/mL (≈ 174 µM)
2 | C=CC(=O)N1CCC([C@@H]2CCNc3c(C(N)=O)c(-c4ccc(Oc5ccccc5)cc4)nn32)CC1 [Freebase Form A] | No | 8.66 | No | 8.66 | No | 8.57 | No | 7.85 | No | 8.76 | No | 8.77 | No | 8.63 | No | 7.67 | 44 | 46 | 40 | 47 | S: solubility ([1]; 37° C., 1 hr): 55 µg/mL; S: solubility ([1]; 37° C., 2 hrs): 57 µg/mL; S: solubility ([1]; 37° C., 4 hrs): 59 µg/mL; S: solubility ([1]; 37° C., 24 hrs): 56 µg/mL
3 | C=CC(=O)N1CCC([C@@H]2CCNc3c(C(N)=O)c(-c4ccc(Oc5ccccc5)cc4)nn32)CC1 [Freebase Amorphous] | No | 8.55 | No | 8.57 | No | 8.51 | No | 7.68 | Gel | 8.78 | Gel | 8.77 | Gel | 8.60 | Gel | 7.74 | 74 | 81 | 78 | 72 | S: solubility ([1]; 37° C., 1 hr): 89 µg/mL; S: solubility ([1]; 37° C., 2 hrs): 89 µg/mL; S: solubility ([1]; 37° C., 4 hrs): 84 µg/mL; S: solubility ([1]; 37° C., 24 hrs): 78 µg/mL
